Experimental data taken from patent US10758478B2, “Active agent loaded uniform, rigid, spherical, nanoporous calcium phosphate particles and methods of making and using the same” (Laboratory Skin Care, Inc., priority 2008, dated 2020).

Legend:
[1] = Binding capacity to hydroxyapatite; format: physicochemical
[2] = Solubility of salicylic acid (water, ethanol and PEG); format: physicochemical

O=C(O)c1ccccc1O [Salicylic acid, 2-Hydroxybenzoic acid]
binding capacity to hydroxyapatite [1]: ≤ 1 mg | solubility in ethanol and PEG (poly ethylene glycol) ([2]; ethanol and PEG): up to 30% | solubility in water ([2]; water): water insoluble
